Patent publication US11285132B2, “Uses of indolinone compounds” (Oncternal Therapeutics, Inc., priority 2016, dated 2022)
pIC50: −log10 of the molar value.

Assays:
[1] = tested on: THP-1; experiment: 72 hr CellTiter-Glo, AML cell line; type: cell-based
[2] = tested on: HL-60; experiment: 72 hr CellTiter-Glo, AML cell line; type: cell-based
[3] = tested on: MOLM-13; experiment: 72 hr CellTiter-Glo, AML cell line; type: cell-based
[4] = tested on: ML-2; experiment: 72 hr CellTiter-Glo, AML cell line; type: cell-based
[5] = tested on: Kasumi-1; experiment: 72 hr CellTiter-Glo, AML cell line; type: cell-based
[6] = tested on: MOLM-16; experiment: 72 hr CellTiter-Glo, AML cell line; type: cell-based
[7] = tested on: DLBCL cell lines; experiment: Combination with other targeted agents, summary over DLBCL cell lines; type: cell-based; details: with lenalidomide; four DLBCL cell lines (2 ABC, 2 GCB)
Protocol: (§1) The latter synergism could be linked to the previously mentioned negative trend between TK-216 IC50 values and the presence of BCL2 translocation.
(§2) Cell lines were exposed to YK-4-279 or TK-216, alone or in combination with other compounds, for 72 h using a Tecan D300e Digital Dispenser and 96 well plates. Cell proliferation was measured with MTT. Synergy was determined with the Chou-Talalay combination index. Gene expression profiling (GEP) was performed with the Illumina HumanHT 12 Expression BeadChips. In vivo studies were done in NOD-SCID mice and treatments started with 60 mm3 tumor volumes sc.
Since lenalidomide is active in mantle cell lymphoma (MCL), the synergism of the combination of TK-216 and lenalidomide was confirmed also in two MCL cell lines.

[8] = target: T1, SPIB to DDX5 (Homo sapiens, UniProt Q01892); experiment: Co-IP of SPIB with helicases in ABC DLBCL cell lines; type: cell-based; details: 500 nM, 4-10 h
T1 construct: endogenous in cells
Excerpt: (§3) With the aim to understand the mechanism of action of YK-4-279 and TK-216, the baseline RNA expression levels of the different ETS factors were correlated with sensitivity to the drugs. SPIB was the gene presenting the most significant negative correlation with both YK-4-279 and TK-216, especially among the ABC DLBCL cell lines (P<0.05). SPIB is a known oncogene for ABC DLBCL (Lenz et al, PNAS 2008) and is involved in the response to lenalidomide in ABC DLBCL (Yang et al, Cancer Cell 2012). YK-4-279 inhibits the binding of EWS1-FLI1 to the helicases RHA and DDX5 (Selvanathan et al, PNAS 2012). Thus, it was assessed whether YK-4-279 and TK-216 can have a similar effect on SPIB and whether they induce cellular effects similar to lenalidomide. […] In ABC DLBCL, the ETS inhibitor YK-4-279 and its clinical derivative TK-216 interfere with SPIB and helicases involved in RNA editing. Moreover, both compounds act similarly to lenalidomide inhibiting IRF4 and upregulating IRF7 and synergize with the IMID in both ABC DLBCL and MCL.

[9] = target: T2, SPIB to RHA (Homo sapiens, UniProt Q01892); experiment: as above; type: cell-based; details: 500 nM, 4-10 h
T2 construct: endogenous in cells
Excerpt: as §3

[10] = tested on: TMD8 cells xenografts; experiment: TMD8 ABC-DLBCL xenograft in NOD-SCID mice; type: in vivo; details: 100 mg/Kg, BID; n=9
Protocol: NOD-Scid mice subcutaneously inoculated with TMD8 cells (15×10^6) were split in two groups respectively treated with TK-216 (100 mg/kg, BID, po, n=9) and control vehicle (n=10). In each box-plot, the line in the middle of the box represents the median and the box extends from the 25th to the 75th percentile (interquartile range, IQ); the whiskers extend to the upper and lower adjacent values (i.e., ±1.5 IQ).
56 lymphoma cell lines [27 diffuse large B cell lymphoma (DLBCL); 10 mantle cell lymphoma; 6 marginal zone lymphoma; 5 anaplastic large T-cell lymphoma; 8 others] were exposed to TK-216 increasing doses for 72 h using a Tecan D300e Digital Dispenser and 384 well plates. Cell proliferation was measured with MTT. In vivo study was done in NOD-SCID mice; treatments were started with approximately sc 60 mm3 tumor volumes. Sensitivity was not affected by the lymphoma cell of origin (B vs T; activated B cell type DLBCL versus germinal center type DLBCL) or MYC and TP53 status. There was a non-statistically significant trend for lower sensitivity in cell lines bearing BCL2 chromosomal translocation (P=0.07, DLBCL only; P=0.06, all cell lines).
as §1, §2

[11] = tested on: snoRNAs; experiment: Gene expression profiling (Illumina HumanHT 12) of ABC DLBCL cell lines; type: cell-based; details: 500 nM, 4-8 h; two ABC DLBCL cell lines
Protocol: as §2
as §3, with “Moreover, both compounds act similarly to lenalidomide inhibiting IRF4 and upregulating IRF7 and synergize with the IMID in both ABC DLBCL and MCL.” left out

T2 sequence (Q01892 whole entry): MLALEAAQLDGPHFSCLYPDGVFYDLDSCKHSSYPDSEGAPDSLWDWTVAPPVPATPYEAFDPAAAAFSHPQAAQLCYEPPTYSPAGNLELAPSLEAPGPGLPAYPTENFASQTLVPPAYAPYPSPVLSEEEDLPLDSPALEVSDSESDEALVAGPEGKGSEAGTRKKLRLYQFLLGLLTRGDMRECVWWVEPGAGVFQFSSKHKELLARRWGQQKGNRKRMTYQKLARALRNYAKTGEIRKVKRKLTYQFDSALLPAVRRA
T1 sequence (Q01892 whole entry): as above

N.N.[Cl][Pt][Cl] [Cisplatin, reference compound] was tested. Which pIC50 [1] did it give?
The pIC50 was 5.87.

What about the pIC50 [2] of the same compound?
The pIC50 was 5.71.

And the pIC50 [3]?
Its pIC50 is 6.10.

And the pIC50 [4]?
Its pIC50 is 5.86.

And the pIC50 [5]?
The pIC50 was 5.34.

And the pIC50 [6]?
Its pIC50 is 5.66.

With COc1ccc(C(=O)CC2(O)C(=O)Nc3c(Cl)ccc(Cl)c32)cc1 (centres unmarked) [YK-4-279, 4,7-dichloro-3-hydroxy-3-(2-(4-methoxyphenyl)-2-oxoethyl)indolin-2-one, reference compound] as the compound, how does the “combination of YK-4-279 plus lenalidomide” value [7] read?
The value was “synergism in both ABC DLBCL”.

What about the “binding of SPIB to DDX5” value [8] of the same compound?
Its value is “to a lesser extent, to DDX5 was decreased”.

And the “binding of SPIB to RHA” value [9]?
The value was “decreased”.

What about the “tumor growth compared with control group” value [10] of the same compound?
Its value is “reduction in tumor growth”.

Which “snoRNA expression (GEP)” value [11] does the source give for COc1ccc(C(=O)C[C@@]2(O)C(=O)Nc3c(Cl)ccc(Cl)c32)cc1 [(S)-YK-4-279] here?
The value was “important upregulation of multiple snoRNAs”.
